The text below walks through data of patent publication US7732412B2, “Methods of treatment using novel LHRH antagonists having improved solubility properties” (Zentaris GmbH, priority 1999, dated 2010).

The term IC50 denotes the midpoint of a concentration-inhibition curve. A higher IC50 goes with weaker potency in that assay. The Kd is a measure of binding affinity in units of concentration.

Experiment [1] addresses T1, human LHRH receptor (Homo sapiens, UniProt P30968).
T1 sequence (P30968 1-328): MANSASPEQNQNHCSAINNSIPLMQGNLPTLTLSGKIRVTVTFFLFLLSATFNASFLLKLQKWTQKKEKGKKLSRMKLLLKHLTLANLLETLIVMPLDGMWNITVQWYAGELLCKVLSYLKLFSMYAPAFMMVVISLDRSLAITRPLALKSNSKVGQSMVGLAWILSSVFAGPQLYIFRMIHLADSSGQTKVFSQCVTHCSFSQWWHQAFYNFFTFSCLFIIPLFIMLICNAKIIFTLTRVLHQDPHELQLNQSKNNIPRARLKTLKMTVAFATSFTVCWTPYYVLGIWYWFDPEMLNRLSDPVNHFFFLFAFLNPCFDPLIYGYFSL
In words: functional assay for antagonistic activity, fos-Luc luciferase reporter gene, stimulation with 1 nM [D-Trp6] LHRH. It counts as cell-based. Details: expressed in transfected cells. The following applies: cells stimulated with 1 nM [D-Trp6] LHRH for 6 h; bracket = number of independent experiments. How it is done:
The assay for the functional characterization of antagonistic analogs of LH-RH was carried out, with some modifications, as described in Beckers et al., “Characterization of gonadotropin-releasing hormone analogs based on a sensitive cellular luciferase reporter gene assay” (1997) Analyt. Biochem. 251, 17-23. The assay uses a reporter gene made by fusing the c-fos immediate-early gene promoter to a DNA sequence encoding luciferase (Luc). A recombinant cell line that expresses the human LH-RH. receptor is stably transfected with the fos-Luc reporter gene. Transcription of the fos-Luc fusion gene and synthesis of the Luc protein is induced in the cells in a dose-dependent manner by LH-RH and other LH-RH agonists that bind and signal through the human LH-RH receptor. Peptide LH-RH antagonists such as the compounds of the invention bind to cellular LH-RH receptors and inhibit this stimulation. The antagonistic potency (IC50) of peptide LH-RH antagonists as determined by the assay generally correlates well with the binding affinity (KD) of the LH-RH antagonists for LH-RH receptor as determined from ligand binding experiments.
Cells containing the fos-Luc reporter gene that express the human LH-RH receptor were cultured for 24 h in microtitre plates using DMEM with additives and 1% (v:v) FCS (10,000 cells per well). The cells were then stimulated with 1 nM [D-Trp^6] LHRH for 6 h. Peptide LH-RH antagonist compounds according to the invention were added before the stimulation, and the cells were lysed at the end for quantification of the cellular Luc activity. The calculation of the IC50 values from dose-effect curves was carried out by non-linear regression analysis using the Hill model (Programme EDX 2.0 from C. Grunwald, Arzneimittelwerk Dresden).
The quantification of the Luc activity was carried out in duplicate essentially as described (Promega Technical Bulletins #101/161) using the respective luciferase assay system (Promega E4030). Owing to addition of coenzyme A (CoA), an oxidation of luciferyl-CoA takes place with advantageous kinetics. After the removal of the culture medium from the microtitre plate, the cells were lysed by addition of 100 μl of lysis buffer (25 mM tris-phosphate pH 7.8, 2 mM dithiothreitol, 2 mM 1,2-diaminocyclohexane-N,N,N′,N′-tetraacetic acid (CDTA), 10% (v:v) glycerol, 1% (v:v) Triton X-100). After incubation at room temperature for 15 min, 10 μl of cell lysate were transferred into a white microtitre plate suitable for luminometric detection (Dynatech). The enzymatic reaction was initiated by addition of 50 μl of assay buffer (20 mM tricine pH 7.8, 1.07 mM (MgCO3)4Mg(OH)2, 2.67 mM MgSO4, 0.1 mM ethylene-diaminetetraacetic acid (EDTA), 33.3 mM dithiothreitol, 270 μM coenzyme A, 470 μM glow-worm (Photinus pyralis) luciferin, 530 μM rATPNa2). After one minute, the luminescence was determined for a total time of one second with a signal half-life of five minutes using the EG&G Berthold MicroLumat LB 96 P.
(In general: A reporter such as luciferase makes a cellular process visible.)

Experiment [2] concerns the target T1, human LHRH receptor. The experiment in a line: receptor binding assay, displacement of [125I]-cetrorelix on intact cells. The following applies: LTK cells expressing human LHRH receptor, 1 h at 37° C.; bracket = number of independent experiments; read-out: KD (binding affinity). Details: expressed in transfected cells; host or cells: LTK cells (stably transfected), intact cells. The text has this: The compounds according to formula I of the invention were investigated for their receptor binding. The assay method closely followed the process described in Beckers et al., “Selection and characterization of mammalian cell lines with stable overexpression of human pituitary receptors for gonadoliberin (GnRH)” (1995) Eur. J. Biochem., 231, 535-543. Cetrorelix obtained according to the synthesis disclosed above was iodinated with [^125I] (Amersham; specific activity 80.5 Bq/fmol) using the IodoGen reagent (Pierce). The reaction mixture was purified by reverse-phase high-performance liquid chromatography with exchanged phases, monoiodinated cetrorelix being obtained without unlabelled peptide. In each case, about 80% of the [^125I]-cetrorelix was capable of specific receptor association.
The receptor binding assay was carried out under physiological conditions as described (Beckers et al., 1995) using intact cells. Subconfluent cultures of stably transfected LTK cells, which express the human LHRH receptor, were separated off by incubation in NaCl/Pi (137 mM NaCl, 2.7 mM KCl, 8.1 mM Na2HPO4, […])/1 mM EDTA and collected by centrifugation. The cell pellet was resuspended in binding buffer (DMEM without H2CO3, with 4.5 g/l of glucose, 10 mM Hepes pH 7.5, 0.5% (mass/volume) BSA, 1 g/l bacitracin, 0.1 g/l SBTI, 0.1% (mass/volume) NaN3). For displacement assays, 0.25×10^6 cells/100 μl were incubated with approximately 225 pM of the [^125I]-cetrorelix (specific activity 5-10×10^5 dpm/pmol) and various concentrations of unlabelled compound according to the invention as competitor. The cell suspension in 100 μl of binding medium was layered in 400 μl assay tubes over 200 μl of 84% by volume silicone oil (Merck Type 550)/16% by volume paraffin oil. […] Cell pellet and supernatants were then analysed by counting the y radiation. The amount of non-specifically bound material was determined at a final concentration of 1 μM with inclusion of unlabelled cetrorelix and was typically ≦10% of the total bound material. […]
On the technique in general: Displacement assays read how much labelled ligand stays bound in the presence of the test substance.

Molecules are shown by their SMILES. Numbered stars: 1 amine (or outer) side, 2 acyl side, 3 side chain; on linkers, the order of the positions; unused ones are H or OH. Square brackets hold non-standard residues; d marks the D form. Side chains are listed from the residue outwards. Peptide text beside a SMILES is read from it. * marks the point of attachment. NH(4-amidinophenyl) = N=C(N)c1ccc(N*)cc1; dPhe(4-Cl) = N[C@H](Cc1ccc(Cl)cc1)C(=O)O; d2Nal = N[C@H](Cc1ccc2ccccc2c1)C(=O)O; NMeY = CN[C@@H](Cc1ccc(O)cc1)C(=O)O; dCit = NC(=O)NCCC[C@@H](N)C(=O)O; d3Pal = N[C@H](Cc1cccnc1)C(=O)O; Suc = O=C(CCC(=O)[*:2])[*:1]

At human LHRH receptor [1], `CC(=O)N[C@H](Cc1ccc2ccccc2c1)C(=O)N[C@H](Cc1ccc(Cl)cc1)C(=O)N[C@H](Cc1cccnc1)C(=O)N[C@@H](CO)C(=O)N(C)[C@@H](Cc1ccc(O)cc1)C(=O)N[C@H](CCCCNC(=O)CCC(=O)Nc1ccc(C(=N)N)cc1)C(=O)N[C@@H](CC(C)C)C(=O)N[C@@H](CCCNC(=N)N)C(=O)N1CCC[C@H]1C(=O)N[C@H](C)C(N)=O` [Example 3, Ac-D-Nal(2)^1-D-Cpa^2-D-Pal(3)^3-ser^4-N-Me-Tyr^5-D-Lys(B)^6-Leu^7-Arg^8-Pro^9-D-Ala^10-NH2] (Ac-[d2Nal][dPhe(4-Cl)][d3Pal]S[NMeY][dK]([Suc-NH(4-amidinophenyl)])LRP[dA]-NH2) gave an IC50 of 492 pM. The Kd at human LHRH receptor [2] was found to be 154 pM.

Compound `CC(=O)N[C@H](Cc1ccc2ccccc2c1)C(=O)N[C@H](Cc1ccc(Cl)cc1)C(=O)N[C@H](Cc1cccnc1)C(=O)N[C@@H](CO)C(=O)N[C@@H](Cc1ccc(O)cc1)C(=O)N[C@H](CCCNC(N)=O)C(=O)N[C@@H](CC(C)C)C(=O)N[C@@H](CCCNC(=N)N)C(=O)N1CCC[C@H]1C(=O)N[C@H](C)C(N)=O` [cetrorelix, Ac-D-Nal(2)^1-D-Cpa^2-D-Pal(3)^3-Ser^4-Tyr^5-D-Cit^6-Leu^7-Arg^8-Pro^9-D-Ala^10-NH2, reference compound] (Ac-[d2Nal][dPhe(4-Cl)][d3Pal]SY[dCit]LRP[dA]-NH2) displayed an IC50 against human LHRH receptor [1] of 198 pM. The Kd on human LHRH receptor [2] is 170 pM.
